The record followed here is US10183927B2, “Crystalline forms of C21H22Cl2N4O2” (BIOMED VALLEY DISCOVERIES, INC., priority 2015, dated 2019).

The series can be described thus: Interconversion of solid forms as a function of relative humidity. Type of series: physicochemical. The protocol: A vessel containing 4-(5-Chloro-2-isopropylaminopyridin-4-yl)-1H-pyrrole-2-carboxylic acid [1-(3-chlorophenyl)-2-hydroxyethyl]amide Form A was purged with dry nitrogen and relative humidity was monitored. After about 73 minutes the relative humidity had decreased from 36.9% to 1.0%.

Where a name gives a salt, the structure may show the parent alone.

For `CC(C)Nc1cc(-c2c[nH]c(C(=O)N[C@H](CO)c3cccc(Cl)c3)c2)c(Cl)cn1` [Form A, 4-(5-Chloro-2-isopropylaminopyridin-4-yl)-1H-pyrrole-2-carboxylic acid [1-(3-chlorophenyl)-2-hydroxyethyl]amide HCl hydrate], the “solid form after purging with dry nitrogen” value (relative humidity decreased from 36.9% to 1.0% after about 73 minutes) is on record as “determined to be a new form, designated Form D”. Take `CC(C)Nc1cc(-c2c[nH]c(C(=O)N[C@H](CO)c3cccc(Cl)c3)c2)c(Cl)cn1` [Form D, 4-(5-Chloro-2-isopropylaminopyridin-4-yl)-1H-pyrrole-2-carboxylic acid [1-(3-chlorophenyl)-2-hydroxyethyl]amide HCl]: for the setting “sorption of water”, the “solid form upon sorption of water” value is listed as “observed to be Form A”.
